Experimental data: PubChem BioAssay (NCI)
Several values for one entry are separate records, joined by “and”; a condition that tells them apart may be missing. Equal values may be shown once.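 Tested at 5 concentrations; 48 h exposure; 96-well plates; endpoints linearly interpolated, else capped at highest concentration. At the GI50, growth is halved. TGI: total growth inhibition.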

How the values were obtained:
Assay in all cases: NCI anticancer screen, dose series, 48 h
786-0 renal = system: 786-0 renal
A498 renal = system: A498 renal
A549 NSCLC = system: A549 NSCLC
ACHN renal = system: ACHN renal
CAKI-1 renal = system: CAKI-1 renal
COLO 205 colon = system: COLO 205 colon
DLD-1 colon = system: DLD-1 colon
DMS 114 small cell lung = system: DMS 114 small cell lung
DMS 273 small cell lung = system: DMS 273 small cell lung
EKVX NSCLC = system: EKVX NSCLC
HCC-2998 colon = system: HCC-2998 colon
HCT-116 colon = system: HCT-116 colon
HL-60(TB) leukemia = system: HL-60(TB) leukemia
HOP-18 NSCLC = system: HOP-18 NSCLC
HOP-62 NSCLC = system: HOP-62 NSCLC
HOP-92 NSCLC = system: HOP-92 NSCLC
HT29 colon = system: HT29 colon
IGROV1 ovarian = system: IGROV1 ovarian
K-562 leukemia = system: K-562 leukemia
KM12 colon = system: KM12 colon
KM20L2 colon = system: KM20L2 colon
LOX IMVI melanoma = system: LOX IMVI melanoma
LXFL 529 NSCLC = system: LXFL 529 NSCLC
M14 melanoma = system: M14 melanoma
M19-MEL melanoma = system: M19-MEL melanoma
MALME-3M melanoma = system: MALME-3M melanoma
MOLT-4 leukemia = system: MOLT-4 leukemia
NCI-H226 lung = system: NCI-H226 lung
NCI-H23 lung = system: NCI-H23 lung
NCI-H460 lung = system: NCI-H460 lung
NCI-H522 lung = system: NCI-H522 lung
OVCAR-3 ovarian = system: OVCAR-3 ovarian
OVCAR-4 ovarian = system: OVCAR-4 ovarian
OVCAR-8 ovarian = system: OVCAR-8 ovarian
RPMI-8226 leukemia = system: RPMI-8226 leukemia
RXF 393 renal = system: RXF 393 renal
RXF-631 renal = system: RXF-631 renal
SF-268 CNS = system: SF-268 CNS
SF-295 CNS = system: SF-295 CNS
SF-539 CNS = system: SF-539 CNS
SK-MEL-28 melanoma = system: SK-MEL-28 melanoma
SK-MEL-5 melanoma = system: SK-MEL-5 melanoma
SK-OV-3 ovarian = system: SK-OV-3 ovarian
SN12C renal = system: SN12C renal
SNB-19 CNS = system: SNB-19 CNS
SNB-75 CNS = system: SNB-75 CNS
SNB-78 CNS = system: SNB-78 CNS
SR leukemia = system: SR leukemia
SW-620 colon = system: SW-620 colon
TK-10 renal = system: TK-10 renal
U251 CNS = system: U251 CNS
UACC-257 melanoma = system: UACC-257 melanoma
UACC-62 melanoma = system: UACC-62 melanoma
UO-31 renal = system: UO-31 renal
XF 498 CNS = system: XF 498 CNS
BT-549 breast = system: BT-549 breast
CCRF-CEM leukemia = system: CCRF-CEM leukemia
DU-145 prostate = system: DU-145 prostate
HCT-15 colon = system: HCT-15 colon
HS 578T breast = system: HS 578T breast
MDA-MB-231 breast = system: MDA-MB-231 breast
MDA-MB-435 = system: MDA-MB-435
MDA-N = system: MDA-N
OVCAR-5 ovarian = system: OVCAR-5 ovarian
PC-3 prostate = system: PC-3 prostate
SK-MEL-2 melanoma = system: SK-MEL-2 melanoma
T-47D breast = system: T-47D breast

Cc1ccc(NC(=O)COC(=O)c2cccc3c(=O)c4ccccc4[nH]c23)cc1
TGI (786-0 renal): > 100 µM | TGI (A498 renal): 92.4 µM | TGI (A549 NSCLC): > 100 µM | TGI (ACHN renal): > 100 µM | TGI (CAKI-1 renal): > 100 µM | TGI (COLO 205 colon): 77.9 µM | TGI (DLD-1 colon): > 100 µM | TGI (DMS 114 small cell lung): > 100 µM | TGI (DMS 273 small cell lung): 94.9 µM | TGI (EKVX NSCLC): > 100 µM | TGI (HCC-2998 colon): > 100 µM | TGI (HCT-116 colon): > 100 µM | TGI (HL-60(TB) leukemia): > 100 µM | TGI (HOP-18 NSCLC): > 100 µM | TGI (HOP-62 NSCLC): > 100 µM | TGI (HOP-92 NSCLC): > 100 µM | TGI (HT29 colon): > 100 µM | TGI (IGROV1 ovarian): > 100 µM | TGI (K-562 leukemia): > 100 µM | TGI (KM12 colon): > 100 µM | TGI (KM20L2 colon): > 100 µM | TGI (LOX IMVI melanoma): 60 µM | TGI (LXFL 529 NSCLC): > 100 µM | TGI (M14 melanoma): > 100 µM | TGI (M19-MEL melanoma): > 100 µM | TGI (MALME-3M melanoma): > 100 µM | TGI (MOLT-4 leukemia): > 100 µM | TGI (NCI-H226 lung): 96.7 µM | TGI (NCI-H23 lung): 74.3 µM | TGI (NCI-H460 lung): > 100 µM | TGI (NCI-H522 lung): 59.9 µM | TGI (OVCAR-3 ovarian): > 100 µM | TGI (OVCAR-4 ovarian): > 100 µM | TGI (OVCAR-8 ovarian): > 100 µM | TGI (RPMI-8226 leukemia): > 100 µM | TGI (RXF 393 renal): 60.5 µM | TGI (RXF-631 renal): > 100 µM | TGI (SF-268 CNS): > 100 µM | TGI (SF-295 CNS): > 100 µM | TGI (SF-539 CNS): > 100 µM | TGI (SK-MEL-28 melanoma): > 100 µM | TGI (SK-MEL-5 melanoma): > 100 µM | TGI (SK-OV-3 ovarian): 92 µM | TGI (SN12C renal): > 100 µM | TGI (SNB-19 CNS): > 100 µM | TGI (SNB-75 CNS): 94.9 µM | TGI (SNB-78 CNS): > 100 µM | TGI (SR leukemia): 65.1 µM | TGI (SW-620 colon): > 100 µM | TGI (TK-10 renal): > 100 µM | TGI (U251 CNS): > 100 µM | TGI (UACC-257 melanoma): > 100 µM | TGI (UACC-62 melanoma): > 100 µM | TGI (UO-31 renal): 42.9 µM | TGI (XF 498 CNS): 78.3 µM

C/C=C(\CCC1NCCc2c1[nH]c1ccccc21)[Si](C)(C)C (centres undefined)
GI50 (786-0 renal): 5.26 µM and 1.81 µM | TGI (786-0 renal): 9.79 µM and 3.34 µM | TGI (A498 renal): 14 µM and 9.88 µM | TGI (A549 NSCLC): 24.9 µM and 21 µM | GI50 (ACHN renal): 11.4 µM and 2.79 µM | TGI (ACHN renal): 25 µM and 8.04 µM | TGI (BT-549 breast): 23.2 µM | GI50 (CAKI-1 renal): 7.02 µM and 2.72 µM | TGI (CAKI-1 renal): 21.4 µM and 11 µM | GI50 (CCRF-CEM leukemia): 7.18 µM and 2.17 µM | TGI (CCRF-CEM leukemia): 17.2 µM and 8.44 µM | TGI (COLO 205 colon): 27.5 µM and 3.26 µM | TGI (DLD-1 colon): 14.1 µM and 11.3 µM | GI50 (DMS 114 small cell lung): 5.76 µM and 1.83 µM | TGI (DMS 114 small cell lung): 10.8 µM and 3.51 µM | GI50 (DMS 273 small cell lung): 5.99 µM and 1.93 µM | TGI (DMS 273 small cell lung): 11.3 µM and 4.07 µM | TGI (DU-145 prostate): 26.1 µM | TGI (EKVX NSCLC): 28.6 µM and 22.1 µM | GI50 (HCC-2998 colon): 5.5 µM and 1.78 µM | TGI (HCC-2998 colon): 9.91 µM and 3.3 µM | GI50 (HCT-116 colon): 5.6 µM and 1.71 µM | TGI (HCT-116 colon): 10.3 µM and 3.13 µM | TGI (HCT-15 colon): 32.7 µM and 5.08 µM | GI50 (HL-60(TB) leukemia): 6.28 µM and 1.51 µM | TGI (HL-60(TB) leukemia): 13.2 µM and 3.3 µM | TGI (HOP-18 NSCLC): 50.8 µM and 19.1 µM | TGI (HOP-62 NSCLC): 28.1 µM and 24.5 µM | GI50 (HOP-92 NSCLC): 5.2 µM and 2.56 µM | TGI (HOP-92 NSCLC): 12.3 µM and 8.5 µM | TGI (HS 578T breast): 6.28 µM | GI50 (HT29 colon): 5.46 µM and 2.21 µM | TGI (HT29 colon): 10.4 µM and 5.03 µM | GI50 (IGROV1 ovarian): 11.9 µM and 4 µM | TGI (IGROV1 ovarian): 16.6 µM and 12.6 µM | TGI (K-562 leukemia): 9.29 µM | GI50 (KM12 colon): 6.18 µM and 1.9 µM | TGI (KM12 colon): 11.3 µM and 3.64 µM | GI50 (KM20L2 colon): 5.29 µM and 1.92 µM | TGI (KM20L2 colon): 11.7 µM and 4.12 µM | TGI (LOX IMVI melanoma): 38.5 µM and 4.84 µM | TGI (LXFL 529 NSCLC): 9.27 µM and 3.2 µM | GI50 (M14 melanoma): 4.65 µM and 1.82 µM | TGI (M14 melanoma): 8.8 µM and 3.66 µM | GI50 (M19-MEL melanoma): 6.62 µM and 1.95 µM | TGI (M19-MEL melanoma): 12.9 µM and 3.89 µM | TGI (MALME-3M melanoma): 7.1 µM and 3.23 µM | TGI (MDA-MB-231 breast): 4.56 µM | TGI (MDA-MB-435): 11.1 µM | TGI (MDA-N): 3.74 µM | TGI (MOLT-4 leukemia): 13.8 µM and 8.98 µM | TGI (NCI-H226 lung): 18.6 µM and 21.6 µM | GI50 (NCI-H23 lung): 7.89 µM and 1.61 µM | TGI (NCI-H23 lung): 20.1 µM and 8.2 µM | GI50 (NCI-H460 lung): 5.56 µM and 1.92 µM | TGI (NCI-H460 lung): 10.9 µM and 3.78 µM | TGI (NCI-H522 lung): 27.9 µM and 4.96 µM | GI50 (OVCAR-3 ovarian): 0.413 µM and 2.91 µM | TGI (OVCAR-3 ovarian): 2.39 µM and 7.41 µM | TGI (OVCAR-4 ovarian): 12.6 µM and 9.04 µM | GI50 (OVCAR-5 ovarian): 6.34 µM and 2.42 µM | TGI (OVCAR-5 ovarian): 16.6 µM and 8.04 µM | TGI (OVCAR-8 ovarian): 19.5 µM and 8.79 µM | TGI (PC-3 prostate): 16.1 µM | GI50 (RPMI-8226 leukemia): 19.8 µM and 2.36 µM | TGI (RXF 393 renal): 17.6 µM and 2.53 µM | TGI (RXF-631 renal): 17.1 µM and 13.9 µM | TGI (SF-268 CNS): 26.2 µM and 23.6 µM | GI50 (SF-295 CNS): 7.13 µM and 2.32 µM | TGI (SF-295 CNS): 17.5 µM and 5.52 µM | GI50 (SF-539 CNS): 6.2 µM and 1.66 µM | TGI (SF-539 CNS): 11.9 µM and 3.09 µM | GI50 (SK-MEL-2 melanoma): 5.28 µM and 1.94 µM | TGI (SK-MEL-2 melanoma): 9.67 µM and 3.7 µM | GI50 (SK-MEL-28 melanoma): 6.42 µM and 1.83 µM | TGI (SK-MEL-28 melanoma): 11.3 µM and 3.36 µM | GI50 (SK-MEL-5 melanoma): 5.63 µM and 2.32 µM | TGI (SK-MEL-5 melanoma): 10.2 µM and 5.23 µM | TGI (SK-OV-3 ovarian): 25.2 µM and 26.5 µM | TGI (SN12C renal): 11.8 µM and 10.4 µM | GI50 (SNB-19 CNS): 15.4 µM and 7.22 µM | TGI (SNB-19 CNS): 30 µM and 22 µM | TGI (SNB-75 CNS): 14.8 µM and 16.7 µM | TGI (SNB-78 CNS): 24.5 µM and 11.7 µM | GI50 (SR leukemia): 8.12 µM and 2.7 µM | TGI (SR leukemia): 18.4 µM and 8.42 µM | GI50 (SW-620 colon): 5.29 µM and 1.92 µM | TGI (SW-620 colon): 9.63 µM and 3.63 µM | TGI (T-47D breast): 4.89 µM | GI50 (TK-10 renal): 14.3 µM and 5.62 µM | TGI (TK-10 renal): 27.5 µM and 17 µM | GI50 (U251 CNS): 5.79 µM and 1.8 µM | TGI (U251 CNS): 10.5 µM and 3.27 µM | GI50 (UACC-257 melanoma): 5.75 µM and 1.7 µM | TGI (UACC-257 melanoma): 10.7 µM and 3.71 µM | TGI (UACC-62 melanoma): 11.8 µM and 12.3 µM | GI50 (UO-31 renal): 8.47 µM and 3.65 µM | TGI (UO-31 renal): 22.5 µM and 10.5 µM | TGI (XF 498 CNS): 6.99 µM and 2.75 µM
